Experimental data from patent publication US4122184A, “Benzimidazole insecticides” (priority 1977, dated 1978).
“And” between values parts separate entries of the source, which are not always exact repeats. Equal entries are not always repeated.

Experiments:
Confused Flour Beetle = experiment: Field trial (first summer), topical; type: in vivo
Outline: (§1)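 Field trial from the first summer in which 1 µl of test solution holding a set number of micrograms of benzimidazole was applied topically to larvae or adult insects. Mortality at a given route and concentration was scored on a 0–9 scale.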

Picnic Beetle [1] = experiment: Field trial (first summer), topical; type: in vivo; settings: .078125 μg/μl
Outline: as §1

House Fly = experiment: Housefly (Contact) Test; type: in vivo, Musca domestica (Diptera); settings: 24 h
Description: Rearing cages containing four-day old adult house flies are chilled at 35°-40° F. for about 1 hour. One hundred flies are transferred from the rearing cage to each test cage using a small scoop. The caged flies are kept for 1-2 hours at 70°-80° F. The cages are sprayed in the same manner as described for the milkweed bug with 5 ml. of the test formulation. Two unsprayed cages are held as controls and two cages are sprayed with a 50 ppm DDT formulation as a reference standard. Mortality counts are made 24 hours after spraying. […] The same rating scale is employed as heretofore.

Alfalfa Weevil Larvae [2] = experiment: Field trial, contact poison test; type: in vivo
Outline: (§2)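 Infested plants in water-filled bottles sprayed by atomizer at 10 psi with compound at several concentrations. Mortality read at 24, 48 and 72 hours on a 0–9 scale (0 = 0-10%, 9 = 91-100%), averaged per concentration.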

Alfalfa Weevil Larvae [3] = experiment: Field trial, topical application; type: in vivo
Description: The results are read at 24, 48, and 72 hours when applicable. The rating scale is 0 to 9 where 0 = 0-10 percent and 9 = 91-100 percent mortality.
In a variation of the above test, 1 microliter of a test solution containing a predetermined number of micrograms of benzimidazole was applied directly to larvae or adult insects.
Using the above methods, field trials were carried out against species of 5 orders of insects. The results, which are summarized in the following tables, give the average mortality for the particular insect with a given benzimidazole for each concentration employed. […] These tables contain all results obtained during the summer trials.

[4] = test system: Tarnished Plant Bug Adults; experiment: Field trial, stomach poison test; type: in vivo; design: key: mortality rating on a 0 to 9 scale
Outline: (§3)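 Leaves from infested plants sprayed (10 psi) or dipped in test compound at several concentrations, air-dried, then five or ten insects placed per dish, one or two replicates. Mortality scored 0 to 9 at 24, 48 and 72 h, averaged per concentration.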

[5] = test system: Unidentified Green Leafhopper; experiment: Field trial, stomach poison test; type: in vivo; design: key: mortality rating on a 0 to 9 scale
Outline: as §3

Picnic Beetle [6] = experiment: Field trial (first summer), stomach; type: in vivo; settings: 250 ppm
Description: Leaves from the infested plant are treated with different concentrations of the test compounds, either by spraying with a DeVilbiss Special Atomizer (5004) at 10 psi or by dipping the leaves in solutions containing the compound. The leaves are then allowed to air dry.
After the leaves have dryed, they are placed in plastic petri dishes (100 × 25 mm), then the insects are counted out into each dish, five or ten insects per dish depending on the number of insects available. There are one or two replicates and usually two or three rates with each compound. Mortality results are taken at 24, 48 and 72 hours. The rating scale is 0 to 9.
During the previous summer similar field trials were conducted employing the same tests as heretofore but with some additional species of insects not included in the later tests. The results listed below are for tests in which an insect mortality was established by a given application route and at a given concentration in a particular test. The same 0 - 9 scoring system is used as is the designation of compounds by alphabetical symbols.

Asparagus Beetles Adults = experiment: Field trial, contact poison test; type: in vivo
Outline: as §2

[7] = test system: Two-Spotted Spider Mite (2-SSM); experiment: Miticide test, acute mortality, foliar spray; type: in vivo, Tetranychus urticae
Description: Each 5 mg. sample of technical compound preweighed at Greenfield was dissolved in 2.5 ml. of acetone and diluted with 247.5 ml. of water containing a combination of […]
The treated cuttings were stored in the greenhouse for 24 hours before evaluation under a binocular disecting microscope in the laboratory. In evaluating the results of the miticide test, each treated cutting was removed from the test tube, observed for live and dead mites at 14 × magnification, and returned immediately to the test tube. A scale of 0-9 was used as before.
The test employing two-spotted spider mites was conducted in similar fashion except that the mites were maintained on squash seedlings or squash cuttings.

[8] = test system: Potato Flea Beetle Adults; experiment: Field trial, contact poison test; type: in vivo
Outline: as §2

Eastern Tent Caterpillar = experiment: Field trial, stomach poison test; type: in vivo
Outline: as §3

Elm Leaf Beetle = experiment: Field trial, stomach poison test; type: in vivo
Outline: as §3

Walnut Caterpillar = experiment: Field trial, stomach poison test; type: in vivo
Outline: as §3

Armyworm, P. Unipuncta = experiment: Field trial, stomach poison test; type: in vivo
Outline: as §3

Bagworms = experiment: Field trial, stomach poison test; type: in vivo
Outline: as §3

[9] = test system: Red-Legged Grasshopper Adults; experiment: Field trial, stomach poison test; type: in vivo
Outline: as §3

## mixture of benzyl 2,6-bis(trifluoromethyl)-4-nitro-1-benzimidazolecarboxylate and benzyl 2,5-bis(trifluoromethyl)-7-nitro-1-benzimidazolecarboxylate
Confused Flour Beetle; .078125 μg/μl
  insect mortality rating: 9 (91-100 percent mortality)
Picnic Beetle [1]
  insect mortality rating: 9 (91-100 percent mortality)
House Fly; 10 ppm
  mortality rating: 0 (0-10)
House Fly; 25 ppm
  mortality rating: 0 (0-10)
House Fly; 50 ppm
  mortality rating: 4 (41-50)
House Fly; 100 ppm
  mortality rating: 5.5
House Fly; 250 ppm
  mortality rating: 9 (91-100)
House Fly; 500 ppm
  mortality rating: 9 (91-100)
House Fly; 1000 ppm
  mortality rating: 9 (91-100)
Alfalfa Weevil Larvae [2]; 500 ppm
  average mortality rating: 4
Alfalfa Weevil Larvae [2]; 750 ppm
  average mortality rating: 4
Alfalfa Weevil Larvae [2]; 1000 ppm
  average mortality rating: 6
Alfalfa Weevil Larvae [3]; 0.03 μg/μl
  average mortality rating: 2
Alfalfa Weevil Larvae [3]; 0.07 μg/μl
  average mortality rating: 1
Alfalfa Weevil Larvae [3]; 0.1 μg/μl
  average mortality rating: 4

## mixture of methyl 2,6-bis(trifluoromethyl)-4-nitro-1-benzimidazolecarboxylate and methyl 2,5-bis(trifluoromethyl)-7-nitro-1-benzimidazolecarboxylate
Picnic Beetle [1]
  insect mortality rating: 9 (91-100 percent mortality)
[4]; 25 ppm
  average mortality rating: 3
[4]; 50 ppm
  average mortality rating: 7 and 4
[5]; 10 ppm
  average mortality rating: 5
[5]; 25 ppm
  average mortality rating: 4
[5]; 50 ppm
  average mortality rating: 6
House Fly; 10 ppm
  mortality rating: 0 (0-10)
House Fly; 25 ppm
  mortality rating: 0 (0-10)
House Fly; 50 ppm
  mortality rating: 9 (91-100)
House Fly; 100 ppm
  mortality rating: 9 (91-100)
House Fly; 250 ppm
  mortality rating: 9 (91-100)
House Fly; 500 ppm
  mortality rating: 9 (91-100)
House Fly; 1000 ppm
  mortality rating: 9 (91-100)
Picnic Beetle [6]
  insect mortality rating: 9 (91-100 percent mortality)
Alfalfa Weevil Larvae [2]; 500 ppm
  average mortality rating: 2
Alfalfa Weevil Larvae [2]; 750 ppm
  average mortality rating: 6
Alfalfa Weevil Larvae [2]; 1000 ppm
  average mortality rating: 7
Asparagus Beetles Adults; 10 ppm
  average mortality rating: 3
Asparagus Beetles Adults; 25 ppm
  average mortality rating: 8
Asparagus Beetles Adults; 50 ppm
  average mortality rating: 9 (91-100 percent mortality)
Alfalfa Weevil Larvae [3]; 0.03 μg/μl
  average mortality rating: 2
Alfalfa Weevil Larvae [3]; 0.07 μg/μl
  average mortality rating: 1
Alfalfa Weevil Larvae [3]; 0.1 μg/μl
  average mortality rating: 4

## CC(C)OC(=O)n1c(C(F)(F)F)nc2c([N+](=O)[O-])cc(C(F)(F)F)cc21 [I, isopropyl 2,6-bis(trifluoromethyl)-4-nitro-1-benzimidazolecarboxylate]
[4]; 10 ppm
  average mortality rating: 3
[4]; 25 ppm
  average mortality rating: 4
[4]; 50 ppm
  average mortality rating: 2
[5]; 10 ppm
  average mortality rating: 2
[5]; 25 ppm
  average mortality rating: 6
[5]; 50 ppm
  average mortality rating: 7
[7]; 6.25 ppm
  acute mortality rating: 3
[7]; 12.5 ppm
  acute mortality rating: 2
[7]; 25 ppm
  acute mortality rating: 8
[7]; 50 ppm
  acute mortality rating: 8
[7]; 100 ppm
  acute mortality rating: 8
[8]; 10 ppm
  average mortality rating: 9 (91-100 percent mortality)
[8]; 25 ppm
  average mortality rating: 9 (91-100 percent mortality)
[8]; 50 ppm
  average mortality rating: 9 (91-100 percent mortality)
[8]; 100 ppm
  average mortality rating: 9 (91-100 percent mortality)
[8]; 250 ppm
  average mortality rating: 9 (91-100 percent mortality)
Alfalfa Weevil Larvae [2]; 500 ppm
  average mortality rating: 1
Alfalfa Weevil Larvae [2]; 750 ppm
  average mortality rating: 2
Alfalfa Weevil Larvae [2]; 1000 ppm
  average mortality rating: 1
Eastern Tent Caterpillar; 250 ppm
  average mortality rating: 0 (0-10 percent)
Eastern Tent Caterpillar; 500 ppm
  average mortality rating: 0 (0-10 percent)
Eastern Tent Caterpillar; 1000 ppm
  average mortality rating: 0 (0-10 percent)
Elm Leaf Beetle; 125 ppm
  average mortality rating: 0 (0-10 percent)
Elm Leaf Beetle; 250 ppm
  average mortality rating: 0 (0-10 percent)
Elm Leaf Beetle; 500 ppm
  average mortality rating: 3
Walnut Caterpillar; 50 ppm
  average mortality rating: 0 (0-10 percent)
Walnut Caterpillar; 100 ppm
  average mortality rating: 1
Walnut Caterpillar; 250 ppm
  average mortality rating: 2
Armyworm, P. Unipuncta; 125 ppm
  average mortality rating: 2
Armyworm, P. Unipuncta; 250 ppm
  average mortality rating: 4
Armyworm, P. Unipuncta; 500 ppm
  average mortality rating: 2
Bagworms; 500 ppm
  average mortality rating: 1
Bagworms; 750 ppm
  average mortality rating: 0 (0-10 percent)
Bagworms; 1000 ppm
  average mortality rating: 1
Bagworms; 1500 ppm
  average mortality rating: 0 (0-10 percent)
Bagworms; 2500 ppm
  average mortality rating: 1
Bagworms; 5000 ppm
  average mortality rating: 1
[9]; 10 ppm
  average mortality rating: 0 (0-10 percent)
[9]; 25 ppm
  average mortality rating: 4
[9]; 50 ppm
  average mortality rating: 4
Alfalfa Weevil Larvae [3]; 0.03 μg/μl
  average mortality rating: 1
Alfalfa Weevil Larvae [3]; 0.07 μg/μl
  average mortality rating: 1
Alfalfa Weevil Larvae [3]; 0.1 μg/μl
  average mortality rating: 3

## mixture of phenyl 2,6-bis(trifluoromethyl)-4-nitro-1-benzimidazolecarboxylate and phenyl 2,5-bis(trifluoromethyl)-1-benzimidazolecarboxylate
Confused Flour Beetle; .15625 μg/μl
  insect mortality rating: 9 (91-100 percent mortality)
[5]; 10 ppm
  average mortality rating: 0 (0-10 percent)
[5]; 25 ppm
  average mortality rating: 1
[5]; 50 ppm
  average mortality rating: 9 (91-100 percent mortality)
House Fly; 10 ppm
  mortality rating: 3 (31-40)
House Fly; 25 ppm
  mortality rating: 7 (71-80)
House Fly; 50 ppm
  mortality rating: 7 (71-80)
House Fly; 100 ppm
  mortality rating: 9 (91-100)
House Fly; 250 ppm
  mortality rating: 9 (91-100)
House Fly; 500 ppm
  mortality rating: 9 (91-100)
House Fly; 1000 ppm
  mortality rating: 9 (91-100)

## mixture of N,N-dimethyl-4-nitro-2,6-bis(trifluoromethyl)thio-1-benzimidazolecarboxamide and N,N-dimethyl-7-nitro-2,5-bis(trifluoromethyl)thio-1-benzimidazolecarboxamide [P]
Picnic Beetle [1]
  insect mortality rating: 9 (91-100 percent mortality)
House Fly; 10 ppm
  mortality rating: 4.0
House Fly; 25 ppm
  mortality rating: 8.5
House Fly; 50 ppm
  mortality rating: 9 (91-100)
House Fly; 100 ppm
  mortality rating: 9 (91-100)
House Fly; 250 ppm
  mortality rating: 9 (91-100)
House Fly; 500 ppm
  mortality rating: 9 (91-100)
House Fly; 1000 ppm
  mortality rating: 9 (91-100)

## O=[N+]([O-])c1cc(C(F)(F)F)cc2[nH]c(C(F)(F)Cl)nc12 [L, 2-chlorodifluoromethyl-4-nitro-6-trifluoromethylbenzimidazole]
[4]; 10 ppm
  average mortality rating: 0 (0-10 percent)
[4]; 25 ppm
  average mortality rating: 4
[4]; 50 ppm
  average mortality rating: 5
